Measurements taken from patent publication US7122193B1 (priority 1994, dated 2006).

How the values were obtained:
Type in all cases: cell-based, mouse
[1] = system: TCR of peptide-primed lymph node T-cells
[2] = system: peptide-primed T lymphocytes from BALB/c mice
[3] = system: peptide-primed T lymphocytes from BALB/c mice; remark: listed apart in the source

Q: How did the “IL-2 secretion by T-cells from mice immunized against the L-peptide 103–115 in the presence of the peptide” value [1] turn out when “CH3CO-(D)Thr-(D)Asp-(D)Lys-(D)Tyr-(D)Thr-(D)Ile-(D)Lys-(D)Trp-(D)Val-(D)Ala-(D)Phe-(D)Leu-(D)Lys-NH2” was run?
A: remains unchanged

Q: What about the “IL-2 production of lymph node cells of mice immunized with parent peptide 103–115, stimulated in vitro by the peptide” value [2] of the same substance?
A: No IL-2 production was observed

Q: What about the “maximal IL-2 secretion measured using CTL-L cells in the presence of Con A” value [2] of the same substance?
A: 5 570 cpm

Q: What about the “proliferation of T-lymphocytes of mice immunized with retro-inverso analogue 103–115, in response to the peptide” value [3] of the same substance?
A: proliferated in response to the homologous peptide

Q: What about the “proliferation of lymph node cells of mice immunized with parent peptide 103–115, stimulated in vitro by the peptide” value [3] of the same substance?
A: did not proliferate in vitro
